Where two headings read alike, the source gives them in different places. Marks after values point to notes of the source that are not given here.
Experiments:
Arabidopsis HST = target: T1, Arabidopsis HST (Arabidopsis thaliana, UniProt Q1ACB3); experiment: HST total extraction (non TLC) assay, recombinant Arabidopsis HST from insect cells; assay type: biochemical
T1 construct: GST (factor Xa cleavage site) (N); made in house; host or cells: Sf9 insect cells (baculovirus, pAcG3X), membrane fraction
T1 sequence (Q1ACB3 70-386): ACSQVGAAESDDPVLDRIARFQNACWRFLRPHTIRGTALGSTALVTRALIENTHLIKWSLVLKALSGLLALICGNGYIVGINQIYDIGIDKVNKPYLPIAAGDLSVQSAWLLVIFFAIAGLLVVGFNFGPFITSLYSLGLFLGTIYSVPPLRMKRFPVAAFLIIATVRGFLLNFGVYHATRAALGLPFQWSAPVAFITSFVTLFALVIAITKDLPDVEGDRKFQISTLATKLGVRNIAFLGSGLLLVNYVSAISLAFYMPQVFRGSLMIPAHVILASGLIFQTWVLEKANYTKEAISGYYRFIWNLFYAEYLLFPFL

Chlamydomonas HST = target: T2, Chlamydomonas HST (Chlamydomonas reinhardtii, UniProt A1JHN0); experiment: HST assay (TLC, MFBQ formed), recombinant Chlamydomonas HST in E. coli membranes; assay type: biochemical; details: for inhibition at 25 ppm: read-out: Chlamydomonas. HST % I at 25 ppm
T2 construct: GST (N); made in house; host or cells: E. coli (BL21A1 / BL21DE3), membrane fraction
T2 sequence (A1JHN0 51-370): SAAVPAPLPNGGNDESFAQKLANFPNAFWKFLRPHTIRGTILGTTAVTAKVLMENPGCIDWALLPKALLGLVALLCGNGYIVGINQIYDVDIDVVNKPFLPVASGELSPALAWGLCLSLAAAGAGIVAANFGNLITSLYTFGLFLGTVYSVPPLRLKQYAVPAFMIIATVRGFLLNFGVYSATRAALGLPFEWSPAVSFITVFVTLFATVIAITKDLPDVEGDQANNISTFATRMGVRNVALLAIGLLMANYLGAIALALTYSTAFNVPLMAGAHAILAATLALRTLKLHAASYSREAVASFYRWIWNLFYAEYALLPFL
In short: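 Recombinant GST-fused Chlamydomonas HST in E. coli membranes was incubated with 200 μM farnesyl diphosphate and 100 μM 14C-homogentisate in 50 mM Tricine-NaOH pH 8.5, 20 mM MgCl2 for ~20 min at 28 °C, with compounds in DMSO. Oxidised plus reduced MFBQ was quantified by TLC phosphorimaging. Results are percent inhibition versus no-inhibitor control across doses.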

[1] = 3 point dose curves only conducted at 50 μM HPP
[2] = TLC, estimated amount of MFBQ formed, relative to controls
[3] = 25 ppm, TLC, estimated amount of MFBQ formed, relative to controls

SMILES	Estimated IC50 (ppm) (Arabidopsis HST)	inhibition at 25 ppm (Chlamydomonas HST; [3]) [%]	also measured
O=c1c(-c2c(F)ccc(F)c2Cl)c(O)c2nccnc2n1CC(F)F [Compound 2.3]	–	–	Estimated IC50 (ppm) (Arabidopsis HST; [1]): 19* ppm; Chlamydomonas. HST % I at 10 ppm (Chlamydomonas HST; [2]): 40%; Chlamydomonas. HST % I at 100 ppm (Chlamydomonas HST; [2]): 85%
O=c1c(-c2c(Cl)ccc(Cl)c2Cl)c(O)c2nccnc2n1CC(F)F [Compound 2.14]	9	85	–
O=c1c(-c2cc(C(F)(F)F)ccc2Cl)c(O)c2nccnc2n1CC(F)F [Compound 2.9]	6	90	–
Oc1c(Cl)c(F)nc(F)c1Cl [Compound 1.1, haloxydine]	–	80	Chlamydomonas. HST % I at 10 ppm (Chlamydomonas HST; [2]): 70%; Chlamydomonas. HST % I at 100 ppm (Chlamydomonas HST; [2]): 95%; inhibition of the HST enzyme reaction (MFBQ and other products) (Chlamydomonas HST; 500 ppm, stated for the HST enzyme preparations assayed): completely inhibits
O=c1c(-c2c(F)ccc(Br)c2Cl)c(O)c2cccnc2n1CC(F)F [Compound 2.15]	12	–	–
O=c1c(-c2c(F)ccc(Br)c2Cl)c(O)c2nccnc2n1CC(F)F [Compound 2.8]	12	85	–
O=c1c(-c2c(F)ccc(F)c2Cl)c(O)c2cccnc2n1CC(F)F [Compound 2.13]	–	–	Estimated IC50 (ppm) (Arabidopsis HST; [1]): 54* ppm; Chlamydomonas. HST % I at 25 ppm (Chlamydomonas HST; [3]): 60%

From patent US20110173718A1, “HERBICIDE TOLERANT PLANTS” (SYNGENTA CROP PROTECTION, INC., priority 2008, published 2011)
